{"source": "patent US8916132B2", "about": "“Benzimidazole-derived compounds use as markers in the case of neurodegenerative diseases” (Servicios Cientificos Neuroinnovation Ltda, priority 2008, dated 2014)", "key": {"mGluR7": {"molecular_target": "mGluR7 (Homo sapiens, UniProt Q14831)", "sequence (Q14831 35-915)": "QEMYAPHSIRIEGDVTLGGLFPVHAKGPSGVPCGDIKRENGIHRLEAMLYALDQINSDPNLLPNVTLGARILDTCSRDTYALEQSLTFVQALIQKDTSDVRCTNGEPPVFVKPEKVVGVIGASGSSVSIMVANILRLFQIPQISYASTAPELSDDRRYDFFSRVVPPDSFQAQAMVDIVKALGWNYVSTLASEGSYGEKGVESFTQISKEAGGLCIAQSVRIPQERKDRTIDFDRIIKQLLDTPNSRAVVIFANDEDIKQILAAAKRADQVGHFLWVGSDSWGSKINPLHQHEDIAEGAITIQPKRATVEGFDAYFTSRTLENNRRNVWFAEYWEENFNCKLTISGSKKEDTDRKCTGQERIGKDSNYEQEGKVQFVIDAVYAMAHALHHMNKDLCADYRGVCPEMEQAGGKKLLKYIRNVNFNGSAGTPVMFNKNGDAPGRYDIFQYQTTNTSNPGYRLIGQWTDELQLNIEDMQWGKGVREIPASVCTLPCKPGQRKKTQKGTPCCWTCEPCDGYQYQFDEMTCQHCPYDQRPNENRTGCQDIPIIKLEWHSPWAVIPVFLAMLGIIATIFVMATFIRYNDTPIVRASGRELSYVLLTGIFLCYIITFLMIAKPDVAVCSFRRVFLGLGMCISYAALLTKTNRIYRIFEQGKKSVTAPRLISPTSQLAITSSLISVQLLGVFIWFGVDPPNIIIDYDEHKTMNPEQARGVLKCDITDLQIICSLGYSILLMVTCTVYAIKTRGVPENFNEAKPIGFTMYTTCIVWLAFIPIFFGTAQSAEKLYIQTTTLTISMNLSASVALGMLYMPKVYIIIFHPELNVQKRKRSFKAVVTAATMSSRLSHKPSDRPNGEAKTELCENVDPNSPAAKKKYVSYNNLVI", "conditions": "Yanamala et al., 2008; cited from earlier work"}, "[1]": {"assay": "Partition coefficient octanol / pH 7.4 tampon", "conditions": "for LogP Coefficient: octanol / pH 7.4 tampon, 25° C.; for CNS LogP: partition coefficient in relation to ability to cross the HEB", "protocol": "(§1) The analyzed parameters were: specific permeability (Sp), this is an indicator of the compound's ability to cross the hematoencephalic barrier (HEB) by passive diffusion, and the partition coefficient (LogP), which corresponds to the partition coefficient of the compound between Octanol and the pH 7.4 phosphate tampon, which is a predictive element for the compound's penetration of the HEB.\nBriefly, the partition coefficient (log Po/w) was determined in a pH 7.4 tampon solution, adjusted with 0.1 M sodium hydroxide. The organic phase utilized octanol saturated with the pH 7.4 tampon solution. A 1 mg/mL solution of the drug in methanol was prepared. Dilutions with concentrations ranging from 0.02 to 0.4 mg/mL were prepared from these solutions. Then […] portions were taken from each of these previously prepared stock solutions in 25 mL volumetric flasks, with the volume completed with the tampon pH 7.4. 25 ml of octanol where then measured and placed in three decantation funnels, with the previously prepared solutions added to each, mixing both phases by vigorous agitation during two minutes. […] Both phases are separated once equilibrium had been reached. The aqueous phase was centrifuged during 3 minutes to ensure complete separation of the phases. The entire process was carried out at a temperature of 25° C. The quantification was carried out with a UVN spectrophotometer."}, "[2]": {"assay": "Parallel Artificial Membrane Permeability assay (PAMPA)", "text": "as §1\nThe Parallel Artificial Membrane Permeability assay (PAMPA) is based on the ability of compounds to diffuse from a donor compartment through a Polyvinylidene Fluoride Membrane Filter (PVDF) covered with a phosphatidylcholine solution at 20% towards a second acceptor compartment, which is analyzed. […] The quantification was carried out by means of spectrophotometry, using pans 1 mm in length and with a capacity of 300 uL."}, "Alzheimer PHF": {"molecular_target": "Alzheimer PHF (Homo sapiens, UniProt P10636)", "sequence (P10636 623-758 limits assumed)": "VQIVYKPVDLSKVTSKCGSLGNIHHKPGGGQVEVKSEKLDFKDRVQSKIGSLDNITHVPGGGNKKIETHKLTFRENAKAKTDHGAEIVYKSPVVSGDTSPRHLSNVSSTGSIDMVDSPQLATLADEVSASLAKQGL", "assay": "^3H-Astemizole displacement test, Alzheimer PHF"}, "Tau Filaments in Vitro": {"molecular_target": "Tau Filaments in Vitro (Homo sapiens, UniProt P10636)", "sequence (P10636 1-441 isoform P10636-8)": "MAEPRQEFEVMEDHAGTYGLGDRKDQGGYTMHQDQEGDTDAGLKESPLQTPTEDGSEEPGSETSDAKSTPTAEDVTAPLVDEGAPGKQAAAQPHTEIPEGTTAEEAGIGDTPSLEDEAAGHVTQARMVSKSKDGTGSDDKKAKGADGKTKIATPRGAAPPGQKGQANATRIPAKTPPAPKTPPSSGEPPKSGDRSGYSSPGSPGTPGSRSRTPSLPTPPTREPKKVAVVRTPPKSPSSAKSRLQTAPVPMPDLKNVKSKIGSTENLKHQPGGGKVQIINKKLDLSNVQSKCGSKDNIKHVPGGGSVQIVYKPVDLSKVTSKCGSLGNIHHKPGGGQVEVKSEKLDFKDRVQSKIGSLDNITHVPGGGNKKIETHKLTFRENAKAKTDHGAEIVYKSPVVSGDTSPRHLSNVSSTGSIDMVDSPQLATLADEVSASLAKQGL", "assay": "^3H-Astemizole displacement test, tau filaments in vitro"}, "[3]": {"test_system": "neurofibrillary tangles (NFTs)", "assay": "Fixation in neurofibrillary tangles in postmortem brain sections of Alzheimer patients", "conditions": "co-localization with PHF-1 antibody, tritiated or fluorescent marking", "method": "This evaluation was carried out by means of immunohistochemistry with antibodies specific for senile plaque, 6E10 antibody reactive against 6-13 residues of Aβ peptide, and the tau-specific PHF1 antibody.\nIn short, postmortem brains of patients with a proven clinical diagnosis of Alzheimer's Disease are set in formalin at 10%, with slices with sections varying from 5 to 200 μm made, preferably with 20 μm. These slices are incubated in benzimidazoles marked pursuant to the present invention and afterwards incubated with the specific 6E10 and PHF1 antibodies to determine the co-localization of the marker in the tau protein structures of the cerebral sections under study.\nFor practical purposes and as part of the examples, the co-localization of marked tau with fluorophore conjugate antibodies with the localization of the fluorescently marked drug is analyzed. The co-localization of both drugs with the tau aggregated structures in the hippocampus region, entorhinal cortex and nucleous of Meynert in the postmortem brains with Alzheimer's Disease was reviewed."}, "[4]": {"conditions": "rat, in vivo, iv"}, "[5]": {"assay": "In vivo pharmacokinetics in blood and cerebral tissue (HPLC/UV)", "conditions": "male, C2 albino, rat, iv, astemizole 16 mg/kg, lansoprazole 8 mg/kg"}, "in vivo": {"assay": "in vivo", "conditions": "male, C2 albino, rat, iv"}, "[6]": {"molecular_target": "Aβ1-42 Peptide Aggregates (Homo sapiens, UniProt P05067)", "sequence (P05067 672-713)": "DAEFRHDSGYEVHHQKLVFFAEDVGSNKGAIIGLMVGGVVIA", "assay": "^3H-Astemizole saturation binding to Aβ1-42 peptide aggregates"}, "[7]": {"test_system": "human tau protein aggregates (PHFs)", "assay": "^3H-Astemizole saturation binding to tau protein aggregates", "conditions": "for Bmax/Kd Index: Tau Protein Aggregates (PHF)"}, "Aβ Fibers": {"molecular_target": "Aβ Fibers (Homo sapiens, UniProt P05067)", "sequence (P05067 672-713 limits assumed)": "as the sequence (P05067 672-713) above", "conditions": "Okamura et al., 2005; cited from earlier work"}, "[8]": {"conditions": "saturation test, Tau Protein Aggregates"}}, "note": "Like-named read-outs stand apart in the source and are kept apart here."}
{"molecule": "c1ccc(C(NCCNC(c2ccccc2)c2ccccc2)c2ccccc2)cc1", "note": "[AMN82]", "values": [{"measurement": "Binding Energies Autodock", "setting": "mGluR7", "value": -31.6, "unit": "kJ/mol"}]}
{"molecule": "C[N+]12CCC(CC1)C(OC(=O)C(O)(c1ccccc1)c1ccccc1)C2", "note": "(centres unmarked) [Clidinium Bromide]", "values": [{"measurement": "LogP Coefficient", "setting": "[1]", "value": "−0.092"}, {"measurement": "CNS LogP", "setting": "[1]", "value": "Unfavorable"}, {"measurement": "CNS Transport", "setting": "[2]", "value": "Negative"}, {"measurement": "Papp", "setting": "[2]", "value": 0.29, "unit": "nm/s"}]}
{"molecule": "Cc1c(OCC(F)(F)F)ccnc1C[S+]([O-])c1nc2ccccc2[nH]1", "note": "(centres unmarked) [Lansoprazole]", "values": [{"measurement": "Ki", "setting": "Alzheimer PHF", "value": 833, "unit": "nM"}, {"measurement": "Ki", "setting": "Tau Filaments in Vitro", "value": 2.7, "unit": "nM"}, {"measurement": "marking of tau aggregates / NFTs in postmortem AD brain sections", "setting": "[3]", "value": "bond to the NFTs structures"}, {"measurement": "marking of tau aggregates / NFTs in postmortem AD brain sections", "setting": "[3]; listed as Lansoprazol", "value": "fluorescent staining of Tau protein aggregates"}, {"measurement": "marking of tau aggregates / NFTs in postmortem AD brain sections", "setting": "[3]; listed as lansoprazole", "value": "efficiently and selectively mark those sectors positive for tau"}, {"measurement": "persistency in the encephalon / brain", "setting": "[4]; male, C2 albino", "value": "at least 3 hours"}, {"measurement": "average life in plasma compared with brain", "setting": "[4]", "value": "less than in the brain"}, {"measurement": "Tmax", "setting": "[5]; brain (cerebral tissue), maximum concentration (Tmax) in the brain, cerebral tissue", "value": 37, "unit": "min"}, {"measurement": "Tmax", "setting": "[5]; whole blood (intracardiac), maximum concentration (Tmax) in blood, intracardiac blood", "value": 30, "unit": "min"}, {"measurement": "CNS Transport", "setting": "[2]; PAMPA", "value": "Positive"}, {"measurement": "Coefficient (Sp) specific permeability", "setting": "[2]; PAMPA", "value": "3.63E−05"}]}
{"molecule": "Cc1c(OCC(F)(F)[18F])ccnc1C[S+]([O-])c1nc2ccccc2[nH]1", "note": "(centres unmarked) [^18F-Lansoprazole]", "values": [{"measurement": "brain/blood bio-distribution relation", "setting": "at 30 minutes", "value": 0.23}, {"measurement": "reaches the brain", "setting": "at 30 minutes", "value": 0.3, "unit": "%"}, {"measurement": "brain/blood bio-distribution relation", "setting": "at 60 minutes", "value": 1.27}, {"measurement": "reaches the brain", "setting": "at 60 minutes", "value": 0.14, "unit": "%"}]}
{"molecule": "COc1ccc(CCN2CCC(Nc3nc4ccccc4n3Cc3ccc(F)cc3)CC2)cc1", "note": "[Astemizole]", "values": [{"measurement": "LogP Coefficient", "setting": "[1]", "value": 5.57}, {"measurement": "CNS LogP", "setting": "[1]", "value": "Favorable"}, {"measurement": "Tmax", "setting": "in vivo; maximum concentration (Tmax) in blood", "value": 28, "unit": "min"}, {"measurement": "Tmax", "setting": "in vivo; maximum concentration (Tmax) in the brain", "value": 55, "unit": "min"}, {"measurement": "marking of tau aggregates / NFTs in postmortem AD brain sections", "setting": "[3]", "value": "bond to the NFTs structures"}, {"measurement": "marking of tau aggregates / NFTs in postmortem AD brain sections", "setting": "[3]; listed as astemizole", "value": "efficiently and selectively mark those sectors positive for tau"}, {"measurement": "Bmax/Kd Index", "setting": "[6]", "value": 0.057}, {"measurement": "average life in plasma compared with brain", "setting": "[4]", "value": "less than in the brain"}, {"measurement": "Bmax/Kd Index", "setting": "[7]", "value": 3.316}, {"measurement": "CNS Transport", "setting": "[2]; PAMPA", "value": "Positive"}, {"measurement": "Papp", "setting": "[2]; PAMPA", "value": 1470, "unit": "nm/s"}]}
{"molecule": "[3H]C([3H])([3H])Oc1ccc(CCN2CCC(Nc3nc4ccccc4n3Cc3ccc(F)cc3)CC2)cc1", "note": "[^3H-Astemizole]", "values": [{"measurement": "Bmax/Kd Index", "setting": "[6]", "value": 0.057}, {"measurement": "Bmax", "setting": "[6]; saturation test", "value": 0.12, "unit": "pmol/nmol Aβ1-42"}, {"measurement": "Bmax/Kd Index", "setting": "[7]", "value": 3.316}, {"measurement": "binding affinity to tau protein aggregate forms compared with Aβ", "setting": "[7]; at low concentrations, FIG. 7", "value": "greater binding affinity to tau protein aggregate forms than to Aβ"}, {"measurement": "Bmax", "setting": "[7]; [8]", "value": 13.07, "unit": "nM"}]}
{"molecule": "COc1ccc(CCN2CCC(Nc3nc4ccccc4n3Cc3ccc(F)cc3)CC2)cc1", "note": "[^3H-Astemizole]", "values": [{"measurement": "Kd", "setting": "[6]; saturation test", "value": 2.1, "unit": "nM"}, {"measurement": "Kd", "setting": "[7]; [8]", "value": 3.94, "unit": "nM"}]}
{"molecule": "CCCC(C)C1(CC)C(=O)NC(=S)NC1=O", "note": "(centres unmarked) [Thiopental]", "values": [{"measurement": "LogP Coefficient", "setting": "[1]", "value": 1.4}, {"measurement": "Papp", "setting": "[2]", "value": 170, "unit": "nm/s"}]}
{"molecule": "CNc1ccc(/C=C/c2nc3ccc(OCCF)cc3o2)cc1", "note": "[BF168]", "values": [{"measurement": "Ki", "setting": "Aβ Fibers", "value": 6.4, "unit": "nM"}]}
